Numbers after ± are expanded uncertainties.
details: Crystal; visual observation

Row | Normal melting temperature | SMILES
1 | 63.77 ± 0.39 °C | Cc1cc(C)cc(O)c1 [3,5-dimethylphenol]
2 | -23.47 ± 0.39 °C | CN1CCCC1=O [N-methylpyrrolidone]
3 | 41.70 ± 0.39 °C | Oc1ccccc1 [phenol]

— the NIST ThermoML archive (doi:10.1016/j.fluid.2005.03.027)
